Reference: ChEMBL document CHEMBL4840358, “Discovery of Modified Amidate (ProTide) Prodrugs of Tenofovir with Enhanced Antiviral Properties” (J Med Chem, 2021)

Columns and labels:
[1] = Cytotoxicity against human HepG2-hNTCP cells incubated for 3 days by XTT assay; assay type: cell-based; details: time 3 day
Hepatitis B virus = test: Antiviral activity against HBV infected in human HepG2-hNTCP cells assessed as reduction in HBV DNA incubated for day 1 followed by compound washout and fresh compound addition on following day and day 3, 6 and 10 measured on day 14 post infection by qPCR analysis; assay type: functional, organism-based
[2] = Cytotoxicity against in human MT4 cells after 5 days by XTT assay; assay type: cell-based; details: time 5 day
[3] = tested on: Human immunodeficiency virus 1; test: Antiviral activity against HIV-1 infected in MT4 cells assessed as reduction in virus-induced cytopathic effect preincubated for 1 hr followed by viral infection and measured after 5 days by XTT assay; assay type: functional, organism-based; details: Human immunodeficiency virus 1, MT4
[4] = Selectivity index, ratio of CC50 for human MT-4 cells to EC50 for HIV-1 infected in MT-4 cells; assay type: toxicity, cell-based; details: read-out: Ratio CC50/EC50

Row | Structure (SMILES) | CC50 at 72 h [1] | EC50 (Hepatitis B virus) | CC50 at 120 h [2] | EC50 [3] | selectivity ratio [4]
1 | COC(=O)[C@H](Cc1ccc(OP(=O)(CO[C@H](C)Cn2cnc3c(N)ncnc32)N[C@@H](C)C(=O)OC(C)C)cc1)NC(=O)OCc1ccccc1 (some centres not stated) | 15000 nM | 0.6 nM | – | – | –
2 | CC(C)OC(=O)[C@H](C)N[P@@](=O)(CO[C@H](C)Cn1cnc2c(N)ncnc21)Oc1ccc(C[C@H](NC(=O)OCc2ccccc2)C(=O)OC2CCCCC2)cc1 | – | – | 14000 nM | 21 nM | –
3 | CC(C)OC(=O)[C@H](C)NP(=O)(CO[C@H](C)Cn1cnc2c(N)ncnc21)Oc1ccc(C[C@H](NC(=O)OCc2ccccc2)C(=O)OC(C)(C)C)cc1 (some centres not stated) | – | – | 6600 nM | 13 nM | –
4 | CC(C)OC(=O)[C@H](C)NP(=O)(CO[C@H](C)Cn1cnc2c(N)ncnc21)Oc1ccc(C[C@@H](C(=O)OC2CCCC2)N(CCCc2ccccc2)Cc2ccccc2)cc1 (some centres not stated) | > 50000 nM | 1.2 nM | – | – | –
5 | CC(C)OC(=O)[C@H](C)NP(=O)(CO[C@H](C)Cn1cnc2c(N)ncnc21)Oc1ccc(C[C@H](NC(=O)OCc2ccccc2)C(=O)OCc2cccs2)cc1 (some centres not stated) | – | – | 8200 nM | 3.4 nM | –
6 | COC(=O)[C@H](Cc1ccc(O[P@](=O)(CO[C@H](C)Cn2cnc3c(N)ncnc32)N[C@@H](C)C(=O)OC(C)C)cc1)N1CCCC1 | – | – | 24000 nM | 11 nM | –
7 | CC(C)OC(=O)[C@H](C)NP(=O)(CO[C@H](C)Cn1cnc2c(N)ncnc21)Oc1ccc(C[C@@H](C(=O)CC2CCCC2)N(CCCc2ccccc2)Cc2ccccc2)cc1 (some centres not stated) | 46000 nM | 1.3 nM | – | – | –
8 | COCCOCCOCCOC(=O)[C@H](Cc1ccc(OP(=O)(CO[C@H](C)Cn2cnc3c(N)ncnc32)N[C@@H](C)C(=O)OC(C)C)cc1)NC(=O)OCc1ccccc1 (some centres not stated) | – | – | > 50000 nM | 470 nM | –
9 | CCOC(=O)[C@H](Cc1ccc(OP(=O)(CO[C@H](C)Cn2cnc3c(N)ncnc32)N[C@@H](C)C(=O)OC(C)C)cc1)NC(=O)OCc1ccccc1 (some centres not stated) | > 50000 nM | 3.6 nM | 11000 nM | 17 nM | –
10 | COC(=O)[C@H](Cc1ccc(O[P@@](=O)(CO[C@H](C)Cn2cnc3c(N)ncnc32)N[C@@H](C)C(=O)OC(C)C)cc1)NC(C)=O | > 50000 nM | 3.2 nM | > 50000 nM | 720 nM | –
11 | CC(C)CCOC(=O)[C@H](Cc1ccc(O[P@](=O)(CO[C@H](C)Cn2cnc3c(N)ncnc32)N[C@@H](C)C(=O)OC(C)C)cc1)NC(=O)OCc1ccccc1 | – | – | 24000 nM | 11 nM | –
12 | CC(C)OC(=O)[C@H](C)N[P@](=O)(CO[C@H](C)Cn1cnc2c(N)ncnc21)Oc1ccc(C[C@H](NC(=O)OCc2ccccc2)C(=O)OC(C)C)cc1 | – | – | 10000 nM | 0.6 nM | 16700
13 | CC(C)OC(=O)[C@H](C)N[P@@](=O)(CO[C@H](C)Cn1cnc2c(N)ncnc21)Oc1ccc(C[C@H](NCCCc2ccccc2)C(=O)OC2CCCC2)cc1 | > 50000 nM | 4 nM | 7600 nM | 0.68 nM | –
14 | COC(=O)[C@H](Cc1ccc(O[P@@](=O)(CO[C@H](C)Cn2cnc3c(N)ncnc32)N[C@@H](C)C(=O)OC(C)C)cc1)NC(=O)C(F)(F)F | > 50000 nM | 0.27 nM | > 50000 nM | 150 nM | –
15 | COC(=O)[C@H](Cc1ccc(O[P@](=O)(CO[C@H](C)Cn2cnc3c(N)ncnc32)N[C@@H](C)C(=O)OC(C)C)cc1)NC(C)=O | > 50000 nM | 7.2 nM | > 50000 nM | 2200 nM | –
16 | CC(C)OC(=O)[C@H](C)N[P@@](=O)(CO[C@H](C)Cn1cnc2c(N)ncnc21)Oc1ccc(C[C@H](NC(=O)OCc2ccccc2)C(=O)NC2CCCC2)cc1 | – | – | 17000 nM | 10 nM | –
17 | CC(C)CCOC(=O)[C@H](Cc1ccc(O[P@@](=O)(CO[C@H](C)Cn2cnc3c(N)ncnc32)N[C@@H](C)C(=O)OC(C)C)cc1)NC(=O)OCc1ccccc1 | – | – | 8000 nM | 0.56 nM | 14300
18 | CC(C)OC(=O)[C@H](C)N[P@@](=O)(CO[C@H](C)Cn1cnc2c(N)ncnc21)Oc1ccc(C[C@H](NC(=O)OCc2ccccc2)C(=O)OC(C)C)cc1 | – | – | 13000 nM | 27 nM | –
19 | COC(=O)[C@@H](N)Cc1ccc(O[P@](=O)(CO[C@H](C)Cn2cnc3c(N)ncnc32)N[C@@H](C)C(=O)OC(C)C)cc1 | – | – | > 50000 nM | 650 nM | –
20 | COC(=O)[C@H](Cc1ccc(O[P@@](=O)(CO[C@H](C)Cn2cnc3c(N)ncnc32)N[C@@H](C)C(=O)OC(C)C)cc1)NC(=O)c1ccccc1 | – | – | > 50000 nM | 84 nM | –
21 | CCC(CC)COC(=O)[C@H](Cc1ccc(O[P@@](=O)(CO[C@H](C)Cn2cnc3c(N)ncnc32)N[C@@H](C)C(=O)OC(C)C)cc1)NC(=O)OCc1ccccc1 | – | – | 38000 nM | 50 nM | –
22 | CCCCCCOC(=O)[C@H](Cc1ccc(OP(=O)(CO[C@H](C)Cn2cnc3c(N)ncnc32)N[C@@H](C)C(=O)OC(C)C)cc1)NC(=O)OCc1ccccc1 (some centres not stated) | > 50000 nM | 1.4 nM | 8400 nM | 1.8 nM | –

Row | Structure (SMILES) | CC50 at 72 h [1] | EC50 (Hepatitis B virus) | CC50 at 120 h [2] | EC50 [3] | selectivity ratio [4]
23 | COC(=O)[C@H](Cc1ccc(O[P@@](=O)(CO[C@H](C)Cn2cnc3c(N)ncnc32)N[C@@H](C)C(=O)OC(C)C)cc1)N1CCCC1 | – | – | 27000 nM | 16 nM | –
24 | CC(C)OC(=O)[C@H](C)NP(=O)(CO[C@H](C)Cn1cnc2c(N)ncnc21)Oc1ccc(C[C@H](NC(=O)OCc2ccccc2)C(=O)OC(C)C)cc1 (some centres not stated) | > 50000 nM | 4.2 nM | 9400 nM | 1.6 nM | –
25 | CC(C)OC(=O)[C@H](C)N[P@](=O)(CO[C@H](C)Cn1cnc2c(N)ncnc21)Oc1ccc(C[C@@H](NC(=O)OCc2ccccc2)C(=O)OC2CCCC2)cc1 | – | – | 20000 nM | 0.67 nM | –
26 | CC(C)OC(=O)[C@H](C)N[P@](=O)(CO[C@H](C)Cn1cnc2c(N)ncnc21)Oc1ccc(C[C@H](NC(=O)OCc2ccccc2)C(=O)NC2CCCC2)cc1 | – | – | 28000 nM | 13 nM | 2150
27 | COC(=O)[C@@H](N)Cc1ccc(O[P@@](=O)(CO[C@H](C)Cn2cnc3c(N)ncnc32)N[C@@H](C)C(=O)OC(C)C)cc1 | – | – | > 50000 nM | 350 nM | –
28 | CC(C)OC(=O)[C@H](C)NP(=O)(CO[C@H](C)Cn1cnc2c(N)ncnc21)Oc1ccc(C[C@H](NC(=O)OCc2ccccc2)C(=O)OCc2ccccc2)cc1 (some centres not stated) | – | – | 10000 nM | 9 nM | –
29 | CC(C)OC(=O)[C@H](C)N[P@](=O)(CO[C@H](C)Cn1cnc2c(N)ncnc21)Oc1ccc(C[C@H](NC(=O)OCc2ccccc2)C(=O)OC2CCCCC2)cc1 | – | – | 9100 nM | 8.4 nM | –
30 | COC(=O)[C@H](Cc1ccc(O[P@@](=O)(CO[C@H](C)Cn2cnc3c(N)ncnc32)N[C@@H](C)C(=O)OC(C)C)cc1)N(C)C | – | – | 38000 nM | 48 nM | –
31 | CCCCCCCCOC(=O)[C@H](Cc1ccc(OP(=O)(CO[C@H](C)Cn2cnc3c(N)ncnc32)N[C@@H](C)C(=O)OC(C)C)cc1)NC(=O)OCc1ccccc1 (some centres not stated) | – | – | 27000 nM | 38 nM | –
32 | COC(=O)[C@H](Cc1ccc(O[P@](=O)(CO[C@H](C)Cn2cnc3c(N)ncnc32)N[C@@H](C)C(=O)OC(C)C)cc1)NC(=O)OCc1ccccc1 | – | – | 8500 nM | 30 nM | –
33 | CC(C)OC(=O)[C@H](C)NP(=O)(CO[C@H](C)Cn1cnc2c(N)ncnc21)Oc1ccc(C[C@H](NC(=O)OCc2ccccc2)C(=O)OC2CCCC2)cc1 (some centres not stated) | > 50000 nM | 0.7 nM | 8300 nM | 0.9 nM | –
34 | CC(C)CCOC(=O)[C@H](Cc1ccc(OP(=O)(CO[C@H](C)Cn2cnc3c(N)ncnc32)N[C@@H](C)C(=O)OC(C)C)cc1)NC(=O)OCc1ccccc1 (some centres not stated) | > 50000 nM | 0.2 nM | 8400 nM | 0.4 nM | –
35 | COC(=O)[C@H](Cc1ccc(O[P@](=O)(CO[C@H](C)Cn2cnc3c(N)ncnc32)N[C@@H](C)C(=O)OC(C)C)cc1)NC(=O)C(F)(F)F | > 50000 nM | 1.6 nM | > 50000 nM | 540 nM | –
36 | COC(=O)[C@H](Cc1ccc(O[P@@](=O)(CO[C@H](C)Cn2cnc3c(N)ncnc32)N[C@@H](C)C(=O)OC(C)C)cc1)NC(=O)OCc1ccccc1 | – | – | 16000 nM | 16 nM | –
37 | CCCCCCOC(=O)[C@H](Cc1ccc(O[P@](=O)(CO[C@H](C)Cn2cnc3c(N)ncnc32)N[C@@H](C)C(=O)OC(C)C)cc1)NC(=O)OCc1ccccc1 | – | – | 17000 nM | 23 nM | –
38 | COC(=O)[C@H](Cc1ccc(O[P@](=O)(CO[C@H](C)Cn2cnc3c(N)ncnc32)N[C@@H](C)C(=O)OC(C)C)cc1)N(C)C | – | – | > 50000 nM | 2500 nM | –
39 | CCCCCCOC(=O)[C@H](Cc1ccc(O[P@@](=O)(CO[C@H](C)Cn2cnc3c(N)ncnc32)N[C@@H](C)C(=O)OC(C)C)cc1)NC(=O)OCc1ccccc1 | – | – | 13000 nM | 16 nM | –
40 | CCOC(=O)[C@H](Cc1ccc(O[P@@](=O)(CO[C@H](C)Cn2cnc3c(N)ncnc32)N[C@@H](C)C(=O)OC(C)C)cc1)NC(=O)OCc1ccccc1 | – | – | 11000 nM | 3.3 nM | –
41 | COC(=O)[C@H](Cc1ccc(O[P@](=O)(CO[C@H](C)Cn2cnc3c(N)ncnc32)N[C@@H](C)C(=O)OC(C)C)cc1)NC(=O)c1ccccc1 | – | – | > 50000 nM | 72 nM | –
42 | CCC(CC)COC(=O)[C@H](Cc1ccc(O[P@](=O)(CO[C@H](C)Cn2cnc3c(N)ncnc32)N[C@@H](C)C(=O)OC(C)C)cc1)NC(=O)OCc1ccccc1 | – | – | 38000 nM | 36 nM | –
43 | CC(C)OC(=O)[C@H](C)N[P@@](=O)(CO[C@H](C)Cn1cnc2c(N)ncnc21)Oc1ccc(C[C@@H](NC(=O)OCc2ccccc2)C(=O)OC2CCCC2)cc1 | – | – | 15000 nM | 0.33 nM | 45500
44 | CCOC(=O)[C@H](Cc1ccc(O[P@](=O)(CO[C@H](C)Cn2cnc3c(N)ncnc32)N[C@@H](C)C(=O)OC(C)C)cc1)NC(=O)OCc1ccccc1 | – | – | 13000 nM | 20 nM | –
